# Reference: US20240216344A1, “THIAZOLIDINEDIONE ANALOGS FOR THE TREATMENT OF NAFLD AND METABOLIC DISEASES” (Cirius Therapeutics, Inc., priority 2019, published 2024)
# Tests used:
# [1] = test system: mouse model of NASH (HTF-C diet); assay: NASH (HTF-C) diet mice: serum small RNA sequencing; assay type: in vivo; conditions: HTF-C diet containing 331 ppm
# Description: To begin evaluating the exosome cargo of MSDC-0602K-treated mice, WT mice were fed with either a low fat (LF) control diet (Research Diets D09100304) or high trans-fat, fructose, cholesterol (HTF-C) diet composed of 40% trans-fat, 20% fructose, 2% cholesterol (Research Diets D09100301).
# Total RNA was isolated from 400 μL of serum and small RNA sequencing was performed by adapter ligation, cDNA synthesis and size selection of 145-160 base pairs. Sequencing was then performed on an Illumina HiSeq3000.
# Heat map miRNAs (˜230 miRNAs) were selected by filtering data for 2-fold or greater change and FDR<0.1 comparing LF to HTF-C diet (not shown). […] Dysregulation of a number of these miRNAs has been previously identified in liver or other fibrotic diseases.
# MPC = target: T1, MPC (Homo sapiens, UniProt O95563+Q9Y5U8); assay: Relative binding affinity for the MPC (FIG. 8)
# T1 sequence (Q9Y5U8 1-109): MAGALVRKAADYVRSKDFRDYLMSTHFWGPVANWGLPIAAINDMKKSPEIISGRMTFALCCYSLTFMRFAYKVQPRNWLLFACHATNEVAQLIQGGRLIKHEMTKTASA
# T1 sequence (O95563 1-127): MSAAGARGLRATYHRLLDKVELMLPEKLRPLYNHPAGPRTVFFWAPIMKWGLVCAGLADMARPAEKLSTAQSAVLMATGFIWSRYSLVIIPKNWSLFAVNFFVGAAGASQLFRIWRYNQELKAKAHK
# [2] = test system: diet-induced obese (60% HF diet) LS-MPC2−/− and WT (fl/fl) mice; assay: Single gavage dose in diet-induced obese WT and LS-MPC2−/− mice: GTT, plasma insulin, plasma ALT, liver qPCR; assay type: in vivo; conditions: for glucose tolerance (GTT): 20 h after a single dose of 30 mg/kg
# Description: 8 week old WT and LS-MPC2−/− mice were fed a diet of 60% fat (Research Diets D12492) for 20 weeks to induce obesity and insulin resistance. Intraperitoneal glucose tolerance tests (GTT) were performed after a 4 h fast by injection of 1 g/kg D-glucose in saline i.p. to assess glucose tolerance. 3 days after the initial GTT, mice were randomized to receive a single gavage of either vehicle (1% CMC, 0.01% Tween-80) or 30 mg/kg MSDC-0602K. Plasma insulin was measured by Singulex assay and plasma ALT levels were measured by commercially-available kits (Teco Diagnostics). qPCR was performed by isolation of total RNA with RNA-Bee and reverse transcription with a high-capacity cDNA synthesis kit (Invitrogen). qPCR was performed on an Applied Biosystems real-time thermocycler.
# WT (fl/fl) and LS-MPC2−/− mice were put on 60% HF diet and became equally obese. […] (FIGS. 1A-1C).
# [3] = Phase 1 clinical trials in healthy volunteers (PK, safety); assay type: in vivo, human; conditions: 126 healthy volunteers
compound,measurement,setting,value
COc1cccc(C(=O)COc2ccc(CC3SC(=O)NC3=O)cc2)c1 (stereo not drawn) [MSDC-0602],serum miRNAs altered in a mouse model of NASH,[1],largely corrected
same,binding to the MPC,MPC,"maintain, and in some cases improve"
same,glucose tolerance (GTT),[2]; LS-MPC2−/− mice,no improvement in glucose tolerance
same,beneficial effects on markers of liver injury,"[2]; LS-MPC2−/− mice, acute treatment",refractory
same,glucose tolerance (GTT),[2]; WT mice,improved glucose tolerance
same,gene expression for hepatic stellate cell activation and fibrotic scar formation,"[2]; WT mice, single dose",decreased gene expression
same,plasma ALT concentrations,"[2]; WT mice, single dose",decreased plasma ALT concentrations
same,plasma insulin values,"[2]; both WT and LS-MPC2−/− mice, single dose 30 mg/kg",decreased
same,"deaths, serious or severe adverse events, discontinuations due to adverse events",[3],"abdominal bloating. No deaths, serious adverse events, severe adverse"
